Assay results published in patent US7931909B2, “Ocular therapy using alpha-2 adrenergic receptor compounds having enhanced anterior clearance rates” (Allergan, Inc., priority 2005, dated 2011).
Read-outs that look alike come from different tables or passages of the source. Marks after values point to notes of the source that are not given here. One block for each molecule: values may come before it.

Legend:
[1] = Pharmacokinetics of brimonidine drug delivery systems administered subconjunctivally; assay type: in vivo, New Zealand White rabbits; settings: all samples, subconjunctival drug delivery systems, rabbit
Text: Thirty groups of rabbits (2 rabbits per group) were used. The groups were divided into 6 sections of 5 groups. […] In each section, one group underwent ophthalmic observation at 5 days after dosing (DAD) and were euthanized at 8 DAD, one group underwent ophthalmic observation at 5 and 29 DAD and were euthanized at 31 DAD, one group underwent ophthalmic observation at 5, 29, and 54 DAD and were euthanized at 60 DAD, and two groups underwent ophthalmic observation at 5, 29, 54, and 86 DAD and were euthanized at 93 DAD.
Eyes were prepared for surgery by topical application of two drops of 1% tropicamide and two drops of phenylephrine hydrochloride 2.5%. Betadine was applied and washed from the eyes, and 1-2 drops of 0.5% proparacaine hydrochloride were delivered to each eye. […] Rods and wafers were administered using forceps. Conjunctivae were sutured closed and received a ocular lubricant. Subconjunctival injections were performed by elevating the bulbar conjunctiva in the dorsotemporal quadrant using forceps. An injection was made into the subconjunctival space.
In the above, the samples were quantified using LC-MS/MS methods with quantitation limits of 10 ng/mL for aqueous and vitreous humor samples, 0.05 ng/mL for plasma samples, 0.5 ng for iris-ciliary body samples, lens samples, and retina samples.

[2] = molecular target: alpha 2 adrenergic receptor; settings: read-out: EC50 to activate the alpha 2 adrenergic receptor; isolated assay systems; cited from earlier work
[3] = tested on: organic cation transporter present in the conjunctiva; settings: cited from earlier work
[4] = intravitreal PLA implant, 200 micrograms brimonidine, rabbit eyes
in vivo [5] = settings: albino, rabbit, vitreous humor, 928 ng
in vivo [6] = settings: rabbit, other: intravitreal implant, 200 micrograms
[7] = cited from earlier work

- Plasma brimonidine concentrations [1]: below the lower limit of quantitation
- vitreal clearance rate (as restated in Example 3): 0.487 mL/day
- route of elimination from the vitreous (conclusion from intravitreal clearance, rabbit): trans-retinal route
- Brimonidine Concentration Iris-ciliary body ([4]; Day 8, mean (N = 2)): 942 ng/g
- Brimonidine Concentration Iris-ciliary body, estimated mean value in parentheses ([4]; Day 8, two samples above the limit of quantitation): 3010 ng/g
- Brimonidine Concentration Vitreous humor ([4]; Day 31, mean ± SEM): 9.35 ± 6.25^b ng/mL
- Brimonidine Concentration Lens ([4]; Day 58, mean ± SEM): 17.9 ± 12.5^b ng/g
- Brimonidine Concentration Retina ([4]; Day 58, mean ± SEM): 122 ± 57.3^a ng/g
- Brimonidine Concentration Vitreous humor ([4]; Day 58, mean ± SEM): 5.6 ± 3.24^b ng/mL
- Brimonidine Concentration Iris-ciliary body ([4]; Day 91, mean ± SEM): 42.9 ± 18.7^c ng/g
- Brimonidine Concentration Retina ([4]; Day 91, mean ± SEM): 488 ± 471^b ng/g
- Brimonidine Concentration Lens ([4]; Day 136, mean ± SEM): 16.2 ± 12.3^a ng/g
- Brimonidine Concentration Lens ([4]; Day 184, mean ± SEM): 1.18 ± 0.71^b ng/g
- Brimonidine Concentration Retina ([4]; Day 184, mean ± SEM): 59.8 ± 35.0^b ng/g
- clearance (in vivo [5]): 0.00812 mL/min
- half-life (in vivo [5]): 1.45 h
- concentration at 0.5 h (in vivo [5]; other: intravitreal injection): 608 ± 116 ng/mL
- concentration at 10 h (in vivo [5]; other: intravitreal injection): 9.68 ± 6.48 ng/mL
- concentration at 31 day (in vivo [6]; iris-ciliary body): 25.9 ± 9.11 ng/g
- concentration at 58 day (in vivo [6]; iris-ciliary body): 69.4 ± 55.3 ng/g
- concentration at 136 day (in vivo [6]; iris-ciliary body): 107 ± 41.5 ng/g
- concentration at 8 day (in vivo [6]; lens): 45.1 ± 13.4 ng/g
- concentration at 31 day (in vivo [6]; lens): 17 ± 3.92 ng/g
- concentration at 91 day (in vivo [6]; lens): 50.1 ± 14.8 ng/g
- concentration at 8 day (in vivo [6]; retina): 3630 ± 2110 ng/g
- concentration at 31 day (in vivo [6]; retina): 35.3 ± 15.5 ng/g
- concentration at 136 day (in vivo [6]; retina): 22.6 ± 5.9 ng/g
- concentration at 8 day (in vivo [6]; vitreous humor): 47.2 ± 13.1 ng/mL
- concentration at 91 day (in vivo [6]; vitreous humor): 59.3 ± 43.2 ng/mL
Molecule: Brc1c(NC2=NCCN2)ccc2nccnc12 [brimonidine, 5-bromo-6-(2-imidazolidinylideneamino)quinoxaline]
- EC50 [2]: ~2 nM
- substrate for the organic cation transporter [3]: substrate

Molecule: brimonidine tartrate
- solubility in water ([7]; in water): 34 mg/mL
- solubility in a pH 7.0 phosphate buffer ([7]; pH 7.0 phosphate buffer): 2.4 mg/mL
